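Five concentrations, 48 hours, 96-well plates. GI50: concentration for 50% inhibition of growth. TGI: concentration producing complete growth inhibition.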
Legend:
Test in all cases: NCI tumour cell line growth inhibition, 48 h
[1] = test system: 786-0 renal
[2] = test system: A549 NSCLC
[3] = test system: HOP-62 NSCLC
[4] = test system: IGROV1 ovarian
[5] = test system: OVCAR-3 ovarian
[6] = test system: RPMI-8226 leukemia
[7] = test system: SK-MEL-5 melanoma
[8] = test system: SK-OV-3 ovarian
[9] = test system: COLO 205 colon
[10] = test system: SNB-75 CNS

Structure (SMILES) | TGI [1] [µM] | TGI [2] [µM] | TGI [3] [µM] | TGI [4] [µM] | TGI [5] | TGI [6] | TGI [7] [µM] | TGI [8] [µM] | TGI [9] [µM] | TGI [10] [µM] | GI50 [1] | GI50 [2] [µM] | GI50 [9] [µM] | GI50 [3] | GI50 [5] | GI50 [6] | GI50 [7] | GI50 [8] [µM] | GI50 [10] | GI50 [4]
COC(=O)C1=C(c2ccc(Cl)cc2)C(O)N=C(NN)N1 (centres undefined) | > 100 | > 100 | > 100 | > 100 | > 100 µM | > 100 µM | > 100 | > 100 | – | – | – | – | – | – | – | – | – | – | – | –
CC1=C(C(=O)Nc2ccccc2C)C(c2ccccc2C)C(C(=O)Nc2ccccc2C)=C(C)N1 | 34.5 | > 100 | 62.8 | 40.1 | 34.7 µM | 81.3 µM | – | – | 62.5 | 59.2 | – | – | – | – | – | – | – | – | – | –
CC(=O)n1c(-c2ccc(Cl)c(Cl)c2)cn(-c2ccc(Cl)cc2)c1=O | 32.9 | > 100 | 43.8 | – | > 100 µM | 67.7 µM | > 100 | 44.1 | > 100 | 31.4 | 13.4 µM | 39.3 | 53 | 20.4 µM | 51.2 µM | 18.8 µM | 32.2 µM | 19.2 | 13.6 µM | –
CC(=O)O/N=C/c1cc2c(cc1Br)OCO2 | > 349 | > 349 | > 349 | > 349 | > 349 µM | > 349 µM | > 349 | > 349 | > 349 | – | – | – | – | – | – | – | – | – | – | –
COc1cc2c(cc1OCCCCCn1c3ccccc3c3ccccc31)N=C[C@@H]1CCCN1C2=O | 3.2 | 3.02 | 3.91 | 4.69 | 3.57 µM | – | 3.15 | 16.8 | 4.57 | 2.58 | 1.73 µM | 1.57 | 2.11 | 1.8 µM | 1.88 µM | – | 1.73 µM | 4.57 | 1.05 µM | 2.08 µM
NC(=O)N/N=C(\CCC(=O)N(Cc1ccccc1)Cc1ccccc1)CC(=O)c1ccc(F)cc1 | 87.4 | > 100 | > 100 | > 100 | > 100 µM | – | > 100 | > 100 | > 100 | – | – | – | – | – | – | – | – | – | – | –
N#CC(C(=O)CCC(=O)Nc1ccc(Cl)c(Cl)c1)c1ccc(Cl)cc1 (centres undefined) | > 100 | > 100 | > 100 | > 100 | > 100 µM | > 100 µM | > 100 | – | – | > 100 | – | – | – | – | – | – | – | – | – | –
CCCCCCCCCCCCCCCCCc1nnc(N)o1 | > 100 | > 100 | > 100 | > 100 | > 100 µM | > 100 µM | – | > 100 | > 100 | > 100 | – | – | – | – | – | – | – | – | – | –
CC1CC(=O)c2c(ccc3c2C(=O)c2cccc(O)c2C3=O)C1 (centres undefined) | 21.2 | 26.4 | – | – | 16.5 µM | 39.1 µM | 8.48 | 57.2 | 25.2 | 22.9 | – | – | – | – | – | – | – | – | – | –
CCc1c2c(nc3ccc(OCc4ccc(B5OC(C)(C)C(C)(C)O5)cc4)cc13)-c1cc3c(c(=O)n1C2)COC(=O)[C@]3(O)CC | 0.0691 | > 100 | – | > 100 | > 100 µM | > 100 µM | 0.338 | – | > 100 | 0.296 | 0.02 µM | 0.06 | 0.126 | < 0.01 µM | 0.215 µM | 0.312 µM | 0.0372 µM | – | 0.0183 µM | 0.134 µM
O=CN1N=C(c2ccc(Nc3ccnc4cc(Cl)ccc34)cc2)CC1c1ccc(Cl)cc1 (centres undefined) | > 100 | > 100 | > 100 | > 100 | > 100 µM | – | > 100 | – | > 100 | – | 0.908 µM | 0.992 | 2.4 | 0.859 µM | 0.352 µM | – | 0.809 µM | – | – | 5.01 µM
O=C1NC(SCc2ccc(F)cc2)=N/C1=C/c1cccc(OCc2ccc(Cl)cc2)c1 | 8.8 | > 100 | – | > 100 | 31.5 µM | > 100 µM | > 100 | > 100 | > 100 | > 100 | 2.88 µM | 6.61 | > 100 | – | 5.08 µM | > 100 µM | > 100 µM | 36.9 | 10.1 µM | 4.91 µM
COc1ccc(/C(C#N)=C(/N)SCc2ccccc2Cl)cc1 | 32.7 | > 100 | 34.1 | > 100 | 24.3 µM | > 100 µM | – | 86.9 | 41.6 | 63.6 | – | – | – | – | – | – | – | – | – | –
O=c1[nH]cnc2c1ncn2CCCCO | > 100 | > 100 | > 100 | > 100 | > 100 µM | > 100 µM | > 100 | – | > 100 | > 100 | – | – | – | – | – | – | – | – | – | –
COC(=O)c1nc(N)nc(C(=O)OC)c1C(=O)c1ccccc1 | > 100 | > 100 | – | > 100 | > 100 µM | > 100 µM | > 100 | > 100 | – | > 100 | – | – | – | – | – | – | – | – | – | –
Nc1ccccc1C#C/C=C\C#Cc1ccccc1F | 23.6 | 95.8 | 20.8 | 28.8 | 14.7 µM | 23.8 µM | 12.3 | 46 | 34.1 | – | 9.28 µM | 10 | 10.3 | 6.66 µM | 2.84 µM | 2.66 µM | 2.73 µM | 16.7 | – | 5.34 µM
CC(C)c1cccc(C(C)C)c1NC(=O)C(=O)C1SC(=S)NC1=O (centres undefined) | > 100 | > 100 | > 100 | > 100 | – | > 100 µM | > 100 | > 100 | > 100 | > 100 | – | – | – | – | – | – | – | – | – | –
COc1ccc(C=C2C(=O)NC(=O)NC2=O)cc1OCc1ccccc1 | – | – | – | – | 39.3 µg/mL | 48.8 µg/mL | – | – | – | – | 52.9 µg/mL | – | – | 36.9 µg/mL | 17 µg/mL | 17.8 µg/mL | 49 µg/mL | – | 22.9 µg/mL | 27.1 µg/mL
O=C1NC(c2ccccc2)N=C2Oc3ccccc3C=C12 (centres undefined) | > 39 | > 100 | > 66.7 | > 74.4 | > 100 µM | > 100 µM | > 100 | > 100 | – | – | – | – | – | – | – | – | – | – | – | –
COc1ccc(CN=C(N)N=C(N)N)cc1OC | > 1000 | > 1000 | > 1000 | > 1000 | > 1000 µM | – | > 1000 | > 1000 | > 1000 | > 1000 | > 1000 µM | 404 | > 1000 | 602 µM | 612 µM | – | 223 µM | > 1000 | 192 µM | > 1000 µM
COc1cc(/C=C\c2ccc(Cl)cc2)cc(OC)c1OC | 20.3 | > 100 | > 100 | > 100 | 0.437 µM | 46.4 µM | 12.8 | 89.3 | > 36.3 | – | – | – | – | – | – | – | – | – | – | –
C=C(C)C(=O)O[C@H]1CC2=CC(CC(C)=C[C@H]3OC(=O)C(=C)C13)OC2=O (some centres undefined) | 24.4 | > 100 | – | > 100 | 70.5 µM | 9.21 µM | > 100 | – | 29.3 | > 100 | – | – | – | – | – | – | – | – | – | –
COc1ccc(OC)c(/C=N/N=C2\C(=O)Nc3c(Cl)cc(Cl)cc32)c1 | > 100 | > 100 | 79.4 | > 100 | > 100 µM | – | > 100 | > 100 | > 100 | 19.7 | – | – | – | – | – | – | – | – | – | –
Cc1cccc(N=C2NC(=O)C(CC(=O)Nc3ccccc3Cl)S2)c1 (centres undefined) | > 100 | > 100 | – | > 100 | > 100 µM | > 100 µM | > 100 | – | – | > 100 | – | – | – | – | – | – | – | – | – | –
COc1cc(-c2oc3c(OC)c(O)cc(O)c3c(=O)c2OC)ccc1O | > 100 | > 100 | – | 15.3 | 22.3 µM | 46.3 µM | 20.4 | 9.15 | > 100 | 27.1 | – | – | – | – | – | – | – | – | – | –
NNC(=S)N/N=C(/C(=O)Nc1ccc([N+](=O)[O-])cc1)c1nc2ccc([N+](=O)[O-])cc2[nH]c1=O | > 100 | > 100 | – | > 100 | – | > 100 µM | > 100 | > 100 | > 100 | > 100 | – | – | – | – | – | – | – | – | – | –
COC(=O)C1C(/C=C/c2ccoc2)ON2CCC[C@@H]12 (some centres undefined) | > 100 | > 100 | > 100 | – | > 100 µM | – | – | – | > 100 | > 100 | – | – | – | – | – | – | – | – | – | –
Cc1cc(Cl)ccc1NC(=O)C(=O)Cc1occc(=O)c1O | > 100 | > 100 | > 100 | > 100 | – | > 100 µM | > 100 | > 100 | > 100 | > 100 | – | – | – | – | – | – | – | – | – | –
O=c1[nH]c2c(c3ccccc13)CCc1ccccc1-2 | > 100 | > 100 | – | > 100 | > 100 µM | > 100 µM | > 100 | > 100 | > 100 | > 100 | – | – | – | – | – | – | – | – | – | –
COC1C(O)C(C)OC(O[C@@H]2C[C@H]3CC[C@@H]4[C@H](CC[C@]5(C)[C@@H](C6=CC(=O)OC6)CC[C@]45O)[C@@]3(C)[C@H](O)C2)C1O (some centres undefined) | > 100 | < 0.0462 | 0.0362 | – | 0.0838 µM | 0.0725 µM | 0.122 | 0.347 | 1.05 | 1.01 | – | – | – | – | – | – | – | – | – | –

Reference: PubChem BioAssay (NCI)
